Experimental data as given in US11999718B2, “Pyrazole derivatives” (Aptabio Therapeutics Inc., priority 2021, dated 2024).

Experiments:
IL-8 = assay: Expression of IL-8 in pancreatic cancer associated fibroblasts (ELISA); format: cell-based, human; settings: P.CAF cells, 48 hours treatment, FIG. 6
Experimental: (§1) In order to confirm the effect of the compounds of Synthetic examples of the present invention on inflammation reaction in cancer associated fibroblasts, whether the expression of IL6 and IL8 was inhibited by the compounds of Synthetic examples in pancreatic cancer associated fibroblasts (P.CAF) was observed.
(§2) After inoculating 1.5×10^5 cells in a 6 well plate and then culturing in P.CAF complete media for 48 hours, the compounds of Synthetic examples were treated by 10, 20, 30, 40, 60 and 80 μM for 48 hours according to each condition, and then the expression of IL-6 and IL-8 was confirmed by performing ELISA with Quantkine ELISA kit (R&D systems) as follows.
(§3) 100 μl of the culture solution in which the compounds of Synthetic examples were treated for 48 hours was added to the microplate strip for analysis including a 100 μl assay diluent and left at a room temperature for 2 hours and then the contents were removed, and then it was washed with 400 μl wash buffer 4 times. 200 μl of a human IL-6 or IL-8 conjugate was added and left at a room temperature for 2 hours and then the contents were removed, and then it was washed with 400 μl wash buffer 4 times. 200 μl of substrate solution was added and left at a room temperature for 20 minutes and then 50 μl of stop solution was added, and the absorbance at a wavelength of 450 nm was measured within 30 minutes to confirm the expression level of IL-6 and IL-8.

IL-6 = assay: Expression of IL-6 in pancreatic cancer associated fibroblasts (ELISA); format: cell-based, human; settings: P.CAF cells, 48 hours treatment, FIG. 5
Experimental: as §1, §2, §3

HFF-1 cells = assay: Collagen gel contraction induced by TGF-β1 in HFF-1 cells; format: cell-based, human; settings: HFF-1 cells in collagen gel, TGF-β1 10 ng/ml, 72 hours, FIG. 7
Text: In order to confirm the effect of the compounds of Synthetic examples on differentiation of fibroblasts into myofibroblasts, the inhibitory effect of the compounds of Synthetic examples on the phenomenon of contraction of gel induced by interaction of human foreskin fibroblasts (HFF-1, ATCC) and collagen was observed.
The mixed solution of the HFF-1 cells and collagen (bovine type I collagen) prepared at a concentration of 3×10^6 cells/ml was aliquoted in a 24 well plate, respectively, and then cultured under the condition of 5% CO2, 37° C. for 1 hour to induce gel polymerization. Then, after suspending the gel attached on the plate from the plate using a spoon, a medium comprising TGF-β1 and Synthetic example compounds was added to each well. After culturing for 72 hours, the Synthetic example compounds were treated by 10, 20, 30, 40, 60 and 80 μM to measure the size of the gel, and thereby, the degree of contraction of the gel by drug treatment was confirmed.

[1] = tested on: HL-60 cells differentiated into neutrophil cells; assay: ROS production induced by PMA in HL-60 cells differentiated into neutrophil cells; format: cell-based; settings: Homo sapiens, 0.5 h; differentiated HL-60 cells, compounds 0.5 uM (0.5 mM in the source) for 30 minutes, 200 nM PMA, L-012 luminescence
Text: In order to confirm the effect of the compounds of Synthetic examples on ROS production from fibroblasts and specific substrate cells, ROS production was induced by stimulation of PMA (phorbol 12-myristate 13-acetate), TGF-β1, palmitate or high concentration-glucose, or the like, in HL-60 cells differentiated into neutrophil cells by DMSO treatment, NHLF (normal human lung fibroblast, Lonza), LX-2 (human hepatic stellate cells, Sigma), ARPE19 (human retinal pigment epithelial cell, ATCC), and KEL-FIB (Keloid fibroblast, ATCC) cells, and under this condition, the inhibitory effect of ROS production of the compounds of Synthetic Examples was observed.
HL-60 cells (human leukemia cells, ATCC) were suspended in a medium containing 1.25% DMSO (RPMI+10% FBS) and cultured under the condition of 5% CO2, 37° C. for 6 days, thereby inducing differentiation into neutrophil cells. […] Then, to each well comprising the cells and drug, 200 nM PMA was treated to induce ROS production, and such ROS production was measured by observing the luminescence level of each well using 100 μM L-012.

| Structure (SMILES) | IL-8 expressed in P.CAF (IL-8) | IL-6 expressed in P.CAF (IL-6) | contraction of the gel induced by TGF-β1 (HFF-1 cells) | inhibition at 0.5 µM [1] |
| --- | --- | --- | --- | --- |
| CN(Cc1ccc(F)cc1F)C1CCc2nn(-c3ccccn3)c(O)c2C1 (centres unmarked) [Compound 5, 5-[(2,4-Difluorobenzyl)methylamino]-2-(pyridin-2-yl)-4,5,6,7-tetrahydro-2H-indazol-3-ol] | effectively inhibited | effectively inhibited | effectively inhibited | > 70% |
| COc1cccc(CN(C)C2CCc3nn(-c4ccccn4)c(O)c3C2)c1 (centres unmarked) [Compound 13, 5-[(3-Methoxybenzyl)methylamino]-2-(pyridin-2-yl)-4,5,6,7-tetrahydro-2H-indazol-3-ol] | – | – | effectively inhibited | > 70% |
| Oc1c2c(nn1-c1ccccn1)CCC(N1CCCCC1)C2 (centres unmarked) [Compound 14, 5-Piperidin-1-yl-2-(pyridin-2-yl)-4,5,6,7-tetrahydro-2H-indazol-3-ol] | – | – | effectively inhibited | 50 to 70% |
| CN(Cc1cccc(S(C)(=O)=O)c1)C1CCc2nn(-c3ccccn3)c(O)c2C1 (centres unmarked) [Compound 23, 5-[Methyl(3-methylsulfonylbenzyl)amino]-2-(pyridin-2-yl)-4,5,6,7-tetrahydro-2H-indazol-3-ol] | effectively inhibited | effectively inhibited | effectively inhibited | 50 to 70% |
| CN(C1CCc2nn(-c3ccccn3)c(O)c2C1)C1CCCc2cccnc21 (centres unmarked) [Compound 33, 5-[Methyl(5,6,7,8-tetrahydroquinolin-8-yl)amino]-2-(pyridin-2-yl)-4,5,6,7-tetrahydro-2H-indazol-3-ol] | effectively inhibited | effectively inhibited | effectively inhibited | 50 to 70% |
| O=C(C1CC1)N1CCN(C2CCc3nn(-c4ccccn4)c(O)c3C2)CC1 (centres unmarked) [Compound 38, Cyclopropyl[4-(3-hydroxy-2-(pyridin-2-yl)-4,5,6,7-tetrahydro-2-indazol-5-yl)piperazin-1-yl]methanone] | effectively inhibited | effectively inhibited | effectively inhibited | > 70% |
| CN(Cc1cc2ccccc2cn1)C1CCc2nn(-c3ccccn3)c(O)c2C1 (centres unmarked) [Compound 62, 5-[(Isoquinolin-3-ylmethyl)methylamino]-2-(pyridin-2-yl)-4,5,6,7-tetrahydro-2H-indazol-3-ol] | effectively inhibited | effectively inhibited | effectively inhibited | > 70% |
| CN(Cc1ccc2ncccc2c1)C1CCc2nn(-c3ccccn3)c(O)c2C1 (centres unmarked) [Compound 63, 5-[Methyl(quinolin-6-ylmethyl)amino]-2-(pyridin-2-yl)-4,5,6,7-tetrahydro-2H-indazol-3-ol] | effectively inhibited | effectively inhibited | effectively inhibited | > 70% |
| Oc1c2c(nn1-c1ccccn1)CCC(N1CCCC1)C2 (centres unmarked) [Compound 96, 2-(Pyridin-2-yl)-5-(pyrrolidin-1-yl)-4,5,6,7-tetrahydro-2H-indazol-3-ol] | – | – | – | 50 to 70% |
| C=CC(=O)N1CCN(C2CCc3nn(-c4ccccn4)c(O)c3C2)CC1 (centres unmarked) [Compound 97, 1-(4-(3-Hydroxy-2-(pyridin-2-yl)-4,5,6,7-tetrahydro-2H-indazol-5-yl)piperazin-1-yl)prop-2-en-1-one] | – | – | – | 50 to 70% |
| CN(C)C/C=C/C(=O)N1CCN(C2CCc3nn(-c4ccccn4)c(O)c3C2)CC1 (centres unmarked) [Compound 98, (E)-4-(dimethylamino)-1-(4-(3-hydroxy-2-(pyridin-2-yl)-4,5,6,7-tetrahydro-2H-indazol-5-yl)piperazin-1-yl)but-2-en-1-one] | – | – | – | 50 to 70% |
| CN(C)C/C=C/C(=O)N(C)C1CCc2nn(-c3ccccn3)c(O)c2C1 (centres unmarked) [Compound 99, (E)-4-(dimethylamino)-N-(3-hydroxy-2-(pyridin-2-yl)-4,5,6,7-tetrahydro-2H-indazol-5-yl)-N-methylbut-2-enamide] | – | – | – | 50 to 70% |
| CCCN1CCN(C2CCc3nn(-c4ccccn4)c(O)c3C2)CC1 (centres unmarked) [Compound 100, 5-(4-Propylpiperazin-1-yl)-2-(pyridin-2-yl)-4,5,6,7-tetrahydro-2H-indazol-3-ol] | – | – | – | 50 to 70% |
| CN1CCN(C2CCc3nn(-c4ccc(F)cc4)c(O)c3C2)CC1 (centres unmarked) [Compound 102, 2-(4-Fluorophenyl)-5-(4-methylpiperazin-1-yl)-4,5,6,7-tetrahydro-2H-indazol-3-ol] | – | – | – | > 70% |
| CN1CCN(C2CCc3nn(-c4ccc(C#N)cc4)c(O)c3C2)CC1 (centres unmarked) [Compound 103, 4-(3-Hydroxy-5-(4-methylpiperazin-1-yl)-4,5,6,7-tetrahydro-2H-indazol-2-yl)benzonitrile] | – | – | – | > 70% |
| Oc1c2c(nn1-c1ccccn1)CCC(N1CCN(CCc3ccccc3)CC1)C2 (centres unmarked) [Compound 104, 5-(4-Penethylpiperazin-1-yl)-2-(pyridin-2-yl)-4,5,6,7-tetrahydro-2H-indazol-3-ol] | – | – | – | 50 to 70% |
| Oc1c2c(nn1-c1ccccn1)CCC(N1CCN(Cc3ccccc3)CC1)C2 (centres unmarked) [Compound 105, 5-(4-Benzylpiperazin-1-yl)-2-(pyridin-2-yl)-4,5,6,7-tetrahydro-2H-indazol-3-ol] | – | – | – | > 70% |
| Oc1c2c(nn1-c1ccccn1)CCC(N1CCN(CC3CCCCC3)CC1)C2 (centres unmarked) [Compound 106, 5-(4-(Cyclohexylmethyl)piperazin-1-yl)-2-(pyridin-2-yl)-4,5,6,7-tetrahydro-2H-indazol-3-ol] | – | – | – | > 70% |
| Oc1c2c(nn1-c1ccccn1)CCC(N1CCN(CCCc3ccccc3)CC1)C2 (centres unmarked) [Compound 107, 5-(4-(3-Phenylpropyl)piperazin-1-yl)-2-(pyridin-2-yl)-4,5,6,7-tetrahydro-2H-indazol-3-ol] | – | – | – | > 70% |
| CN1CCN(C2CCc3nn(-c4ncccn4)c(O)c3C2)CC1 (centres unmarked) [Compound 108, 5-(4-Methylpiperazin-1-yl)-2-(pyrimidin-2-yl)-4,5,6,7-tetrahydro-2H-indazol-3-ol] | – | – | – | > 70% |
| Cc1ccc(N2CCN(C3CCc4nn(-c5ccccn5)c(O)c4C3)CC2)cc1 (centres unmarked) [Compound 126, 2-(Pyridin-2-yl)-5-(4-(p-tolyl)piperazin-1-yl)-4,5,6,7-tetrahydro-2H-indazol-3-ol] | – | – | – | > 70% |
| COc1ccc(N2CCN(C3CCc4nn(-c5ccccn5)c(O)c4C3)CC2)cc1 (centres unmarked) [Compound 129, 5-(4-(4-Methoxyphenyl)piperazin-1-yl)-2-(pyridin-2-yl)-4,5,6,7-tetrahydro-2H-indazol-3-ol] | – | – | – | > 70% |
| CC(=O)c1ccc(N2CCN(C3CCc4nn(-c5ccccn5)c(O)c4C3)CC2)cc1 (centres unmarked) [Compound 130, 1-(4-(4-(3-Hydroxy-2-(pyridin-2-yl)-4,5,6,7-tetrahydro-2H-indazol-5-yl)piperazin-1-yl)phenyl)ethan-1-one] | – | – | – | > 70% |
| CS(=O)(=O)c1ccc(N2CCN(C3CCc4nn(-c5ccccn5)c(O)c4C3)CC2)cc1 (centres unmarked) [Compound 131, 5-(4-(4-(Methylsulfonyl)phenyl)piperazin-1-yl)-2-(pyridin-2-yl)-4,5,6,7-tetrahydro-2H-indazol-3-ol] | – | – | – | > 70% |
